Measurements as given in patent publication US20190031676A1, “ANTIBACTERIAL ANNULATED PYRROLIDIN-2-ONE DERIVATIVES” (priority 2015, published 2019).
In brackets after ≈: the same amount, converted by molar mass. Like-named read-outs stand apart in the source and are kept apart here.

Legend:
Type in all cases: cell-based
wild-type E. coli A-1261 = test: MIC against wild-type E. coli A-1261 with or without alkaline phosphatase or esterase (prodrug activation); conditions: Escherichia coli
Experimental: Minimal Inhibitory Concentrations (MICs; mg/L) were determined in cation-adjusted Mueller-Hinton Broth by a microdilution method following the description given in “Methods for Dilution Antimicrobial Susceptibility Tests for Bacteria that grow Aerobically”, Approved standard, 7th ed., Clinical and Laboratory Standards Institute (CLSI) Document M7-A7, Wayne, Pa., USA (2006). The compounds of Examples 4 and 16 were tested against wild-type E. coli A-1261 in the absence of alkaline phosphatase or esterase, in the presence of an alkaline phosphatase, and in the presence of an esterase. The corresponding antibacterial test results are given in Table 2 hereafter (MICs in mg/L).

P. aeruginosa ATCC27853 = test: Bacterial growth minimal inhibitory concentration (microdilution, cation-adjusted Mueller-Hinton Broth); conditions: quinolone-sensitive strain; for MIC: Pseudomonas aeruginosa, ATCC27853
Experimental: (§1) Minimal Inhibitory Concentrations (MICs; mg/L) were determined in cation-adjusted Mueller-Hinton Broth by a microdilution method following the description given in “Methods for Dilution Antimicrobial Susceptibility Tests for Bacteria that grow Aerobically”, Approved standard, 7th ed., Clinical and Laboratory Standards Institute (CLSI) Document M7-A7, Wayne, Pa., USA (2006).
(§2) All Example compounds were tested against several Gram-positive and Gram-negative bacteria. […] K. pneumoniae A-651 is a multiply-resistant strain (in particular quinolone-resistant), while E. coli ATCC25922 and P. aeruginosa ATCC27853 are quinolone-sensitive strains.

K. pneumoniae A-651 = test: as above; conditions: multiply-resistant strain (in particular quinolone-resistant); for MIC: Klebsiella pneumoniae, A651
Experimental: as §1, §2

E. coli ATCC25922 = test: as above; conditions: quinolone-sensitive strain; for MIC: Escherichia coli, ATCC25922
Experimental: as §1, §2

Row | Structure (SMILES) | MIC (P. aeruginosa ATCC27853) [µg/mL] | MIC (K. pneumoniae A-651) [µg/mL] | MIC (E. coli ATCC25922) [µg/mL] | further results
1 | C[C@@](CCN1Cc2cc(C#CC#C[C@H]3C[C@]3(F)COP(=O)(O)O)sc2C1=O)(C(=O)NO)S(C)(=O)=O [Example 16, ((1R,2R)-1-fluoro-2-((5-((3R)-4-(hydroxyamino)-3-methyl-3-(methylsulfonyl)-4-oxobutyl)-6-oxo-5,6-dihydro-4H-thieno[2,3-c]pyrrol-2-yl)buta-1,3-diyn-1-yl)cyclopropyl)methyl dihydrogen phosphate] |  |  |  | MIC (wild-type E. coli A-1261; alkaline phosphatase 2 i.U./mL, read-out: MIC for E. coli A-1261 In the presence of an alkaline phosphatase (2 i.U./mL)): 0.25 µg/mL; MIC (wild-type E. coli A-1261; esterase 10 i.U./mL, read-out: MIC for E. coli A-1261 In the presence of an esterase (10 i.U./mL)): > 8 µg/mL; MIC (wild-type E. coli A-1261; no alkaline phosphatase or esterase, read-out: MIC for E. coli A-1261 In the absence of alkaline phosphatase or esterase): > 8 µg/mL
2 | CC(C)N1CC(C#CC#Cc2cc3c(s2)C(=O)N(CC[C@](C)(C(=O)NO)S(C)(=O)=O)C3)C1 [Example 24, (R)—N-hydroxy-4-(2-((1-isopropylazetidin-3-yl)buta-1,3-diyn-1-yl)-6-oxo-4,6-dihydro-5H-thieno[2,3-c]pyrrol-5-yl)-2-methyl-2-(methylsulfonyl)butanamide] | 1 (≈ 2.09 µM) | 0.5 (≈ 1.05 µM) | 0.25 (≈ 0.523 µM) | 
3 | CC(C)(O)CN1CC(C#CC#Cc2cc3c(s2)C(=O)N(CC[C@](C)(C(=O)NO)S(C)(=O)=O)C3)C1 [Example 25, (2R)—N-hydroxy-4-(2-((1-(2-hydroxy-2-methylpropyl)azetidin-3-yl)buta-1,3-diyn-1-yl)-6-oxo-4,6-dihydro-5H-thieno[2,3-c]pyrrol-5-yl)-2-methyl-2-(methylsulfonyl)butanamide] | 1 (≈ 1.97 µM) | 1 (≈ 1.97 µM) | 1 (≈ 1.97 µM) | 
4 | C[C@@](CCN1Cc2cc(C#Cc3ccc(C4CN(C5COC5)C4)cc3)sc2C1=O)(C(=O)NO)S(C)(=O)=O [Example 26, (2R)—N-hydroxy-2-methyl-2-(methylsulfonyl)-4-(2-((4-(1-(oxetan-3-yl)azetidin-3-yl)phenyl)ethynyl)-6-oxo-4,6-dihydro-H-thieno[2,3-c]pyrrol-5-yl)butanamide] |  |  |  | MIC for P. aeruginosa ATCC27853 (P. aeruginosa ATCC27853): 2 mg/L; MIC for K. Pneumoniae A-651 (K. pneumoniae A-651): 0.25 mg/L; MIC for E. coli ATCC25922 (E. coli ATCC25922): 0.25 mg/L
5 | C[C@@](CCN1Cc2cc(C#CC#CC3CN(C4CCOCC4)C3)sc2C1=O)(C(=O)NO)S(C)(=O)=O [Example 27, (2R)—N-hydroxy-2-methyl-2-(methylsulfonyl)-4-(6-oxo-2-((1-(tetrahydro-2H-pyran-4-yl)azetidin-3-yl)buta-1,3-diyn-1-yl)-4,6-dihydro-5H-thieno[2,3-c]pyrrol-5-yl)butanamide] | 1 (≈ 1.92 µM) | 0.25 (≈ 0.481 µM) | 0.125 (≈ 0.241 µM) | 
6 | C[C@@](CCN1Cc2cc(C#Cc3ccc(C4CN(C5COC5)C4)cc3)sc2C1=O)(C(=O)NO)S(C)(=O)=O [Example 29, (2R)—N-hydroxy-2-methyl-2-(methylsulfonyl)-4-(2-((4-(1-(oxetan-3-yl)azetidin-3-yl)phenyl)ethynyl)-6-oxo-4,6-dihydro-H-thieno[2,3-c]pyrrol-5-yl)butanamide] |  |  |  | MIC for P. aeruginosa ATCC27853 (P. aeruginosa ATCC27853): 2 mg/L; MIC for K. Pneumoniae A-651 (K. pneumoniae A-651): 1 mg/L; MIC for E. coli ATCC25922 (E. coli ATCC25922): 0.25 mg/L
7 | C[C@@](CCN1Cc2cc(C#CC#C[C@H]3C[C@@H]3CN3CC(F)C3)sc2C1=O)(C(=O)NO)S(C)(=O)=O [Example 30, (2R)-4-(2-(((1S,2S)-2-((3-fluoroazetidin-1-yl)methyl)cyclopropyl)buta-1,3-diyn-1-yl)-6-oxo-4,6-dihydro-5H-thieno[2,3-c]pyrrol-5-yl)-N-hydroxy-2-methyl-2-(methylsulfonyl)butanamide] | 2 (≈ 3.94 µM) | 1 (≈ 1.97 µM) | 0.125 (≈ 0.246 µM) | 
8 | C[C@@](CCN1Cc2cc(C#CC#CC3CN([C@H]4C[C@@H](O)C4)C3)sc2C1=O)(C(=O)NO)S(C)(=O)=O [Example 31, (2R)—N-hydroxy-4-(2-((1-((1s,3s)-3-hydroxycyclobutyl)azetidin-3-yl)buta-1,3-diyn-1-yl)-6-oxo-4,6-dihydro-5H-thieno[2,3-c]pyrrol-5-yl)-2-methyl-2-(methylsulfonyl)butanamide] |  |  |  | MIC for P. aeruginosa ATCC27853 (P. aeruginosa ATCC27853): 1 mg/L; MIC for K. Pneumoniae A-651 (K. pneumoniae A-651): 0.5 mg/L; MIC for E. coli ATCC25922 (E. coli ATCC25922): 0.5 mg/L
9 | C[C@@](CCN1Cc2cc(C#CC#CC3CN(C4CC(O)C4)C3)sc2C1=O)(C(=O)NO)S(C)(=O)=O (stereo partly drawn) [Example 32, (2R)—N-hydroxy-4-(2-((1-((1r,3r)-3-hydroxycyclobutyl)azetidin-3-yl)buta-1,3-diyn-1-yl)-6-oxo-4,6-dihydro-5H-thieno[2,3-c]pyrrol-5-yl)-2-methyl-2-(methylsulfonyl)butanamide] |  |  |  | MIC for P. aeruginosa ATCC27853 (P. aeruginosa ATCC27853): 1 mg/L; MIC for K. Pneumoniae A-651 (K. pneumoniae A-651): 0.5 mg/L; MIC for E. coli ATCC25922 (E. coli ATCC25922): 0.25 mg/L
10 | C[C@@](CCN1Cc2cc(C#Cc3ccc(CCO)cc3)ccc2C1=O)(C(=O)NO)S(C)(=O)=O [Example 33, (2R)—N-hydroxy-4-(5-((4-(2-hydroxyethyl)phenyl)ethynyl)-1-oxoisoindolin-2-yl)-2-methyl-2-(methylsulfonyl)butanamide] | 2 (≈ 4.25 µM) | 0.5 (≈ 1.06 µM) | 0.125 (≈ 0.266 µM) | 
11 | C[C@@](CCN1Cc2cc(C#CC#CC3CN(C(=O)OCCCO)C3)sc2C1=O)(C(=O)NO)S(C)(=O)=O [Example 34, 3-hydroxypropyl (2R)-3-((5-(4-(hydroxyamino)-3-methyl-3-(methylsulfonyl)-4-oxobutyl)-6-oxo-5,6-dihydro-4H-thieno[2,3-c]pyrrol-2-yl)buta-1,3-diyn-1-yl)azetidine-1-carboxylate] |  |  |  | MIC for P. aeruginosa ATCC27853 (P. aeruginosa ATCC27853): 1 mg/L; MIC for K. Pneumoniae A-651 (K. pneumoniae A-651): 0.5 mg/L; MIC for E. coli ATCC25922 (E. coli ATCC25922): 0.25 mg/L
12 | CN1C[C@@H](C#CC#Cc2cc3c(s2)C(=O)N(CC[C@](C)(C(=O)NO)S(C)(=O)=O)C3)[C@@H]1CO [Example 35, (2R)—N-hydroxy-4-(2-(((2R,3R)-2-(hydroxymethyl)-1-methylazetidin-3-yl)buta-1,3-diyn-1-yl)-6-oxo-4,6-dihydro-5H-thieno[2,3-c]pyrrol-5-yl)-2-methyl-2-(methylsulfonyl)butanamide] | 1 (≈ 2.09 µM) | 2 (≈ 4.17 µM) | 0.5 (≈ 1.04 µM) | 
13 | CN1C[C@@H](C#CC#Cc2cc3c(s2)C(=O)N(CC[C@](C)(C(=O)NO)S(C)(=O)=O)C3)C[C@@H]1CO [Example 36, (2R)—N-hydroxy-4-(2-(((3R,5R)-5-(hydroxymethyl)-1-methylpyrrolidin-3-yl)buta-1,3-diyn-1-yl)-6-oxo-4,6-dihydro-5H-thieno[2,3-c]pyrrol-5-yl)-2-methyl-2-(methylsulfonyl)butanamide] | 1 (≈ 2.03 µM) | 1 (≈ 2.03 µM) | 0.5 (≈ 1.01 µM) | 
14 | C[C@@](CCN1Cc2cc(C#CC#CC3CN(CC4(O)COC4)C3)sc2C1=O)(C(=O)NO)S(C)(=O)=O [Example 39, (2R)—N-hydroxy-4-(2-((1-((3-hydroxyoxetan-3-yl)methyl)azetidin-3-yl)buta-1,3-diyn-1-yl)-6-oxo-4,6-dihydro-5H-thieno[2,3-c]pyrrol-5-yl)-2-methyl-2-(methylsulfonyl)butanamide] | 2 (≈ 3.83 µM) | 2 (≈ 3.83 µM) | 1 (≈ 1.92 µM) | 
15 | CN1[C@@H](CO)C[C@@H]1C#CC#Cc1cc2c(s1)C(=O)N(CC[C@](C)(C(=O)NO)S(C)(=O)=O)C2 [Example 40, (2R)—N-hydroxy-4-(2-(((2R,4R)-4-(hydroxymethyl)-1-methylazetidin-2-yl)buta-1,3-diyn-1-yl)-6-oxo-4,6-dihydro-5H-thieno[2,3-c]pyrrol-5-yl)-2-methyl-2-(methylsulfonyl)butanamide] | 1 (≈ 2.09 µM) | 2 (≈ 4.17 µM) | 0.25 (≈ 0.521 µM) | 

Now from value to compound, other results behind:

Row | MIC (P. aeruginosa ATCC27853) [µg/mL] | MIC (K. pneumoniae A-651) [µg/mL] | MIC (E. coli ATCC25922) [µg/mL] | Structure (SMILES) | further results
16 | 1 (≈ 2.08 µM) | 0.25 (≈ 0.519 µM) | 0.063 (≈ 0.131 µM) | C[C@@](CCN1Cc2cc(C#CC#CC3CN(CCF)C3)sc2C1=O)(C(=O)NO)S(C)(=O)=O [Example 23, (2R)-4-(2-((1-(2-fluoroethyl)azetidin-3-yl)buta-1,3-diyn-1-yl)-6-oxo-4,6-dihydro-5H-thieno[2,3-c]pyrrol-5-yl)-N-hydroxy-2-methyl-2-(methylsulfonyl)butanamide] | 
17 | 2 (≈ 3.96 µM) | 0.5 (≈ 0.989 µM) | 0.25 (≈ 0.494 µM) | C[C@@](CCN1Cc2cc(C#CC#CC3CN(CC4COC4)C3)sc2C1=O)(C(=O)NO)S(C)(=O)=O [Example 28, (2R)—N-hydroxy-2-methyl-2-(methylsulfonyl)-4-(2-((1-(oxetan-3-ylmethyl)azetidin-3-yl)buta-1,3-diyn-1-yl)-6-oxo-4,6-dihydro-5H-thieno[2,3-c]pyrrol-5-yl)butanamide] | 
18 | 1 (≈ 2.08 µM) | 0.25 (≈ 0.519 µM) | 0.125 (≈ 0.26 µM) | CN1C[C@H](C#CC#Cc2cc3c(s2)C(=O)N(CC[C@](C)(C(=O)NO)S(C)(=O)=O)C3)[C@H]1CF [Example 41, (2R)-4-(2-(((2S,3S)-2-(fluoromethyl)-1-methylazetidin-3-yl)buta-1,3-diyn-1-yl)-6-oxo-4,6-dihydro-5H-thieno[2,3-c]pyrrol-5-yl)-N-hydroxy-2-methyl-2-(methylsulfonyl)butanamide] | 
19 | 2 (≈ 4.62 µM) | 0.125 (≈ 0.289 µM) | ≤ 0.031 | C[C@@](CCN1Cc2cc(C#Cc3ccccc3)sc2C1=O)(C(=O)NO)S(C)(=O)=O [Example 42, (2R)—N-hydroxy-2-methyl-2-(methylsulfonyl)-4-(6-oxo-2-(phenylethynyl)-4,6-dihydro-5H-thieno[2,3-c]pyrrol-5-yl)butanamide] | 
